“Also recorded” adds a separate entry of the source. Read-outs that look alike come from different tables or passages of the source.
Legend:
[1] = serum/blood ionized Ca2+ in rats; format: in vivo, rat
Procedure: Compounds shown to activate the bovine parathyroid cell calcium receptor in vitro were tested for hypocalcemic activity in vivo. Male Sprague-Dawley rats (200 g) were maintained on a low calcium diet for one week prior to receiving test substance or vehicle as control. Blood was collected from the tail vein three hours after the intraperitoneal administration of NPS 467. […] Serum total calcium, albumin and phosphate were measured by techniques well known in the art.
Rats (male, Sprague-Dawley, 250-300 g) were fed standard rat chow and fasted overnight prior to the experiment. NPS R-467 was suspended in corn oil and administered as a single oral dose through a gavage needle. Three hours later a sample of blood was taken from the tail vein and assessed for ionized Ca^2+ levels.

[2] = hypocalcemic response in parathyroidectomized rats; format: in vivo, rat; conditions: NPS R-467 10 mg/kg i.p., 6 hours; NPS R-568 oral
Text: To determine the primary target tissue upon which NPS R-467 acts to cause a hypocalcemic response, the parathyroid glands in rats were surgically removed. Animals receiving a total parathyroidectomy become hypocalcemic and are largely dependent upon dietary calcium to maintain serum Ca^2+ homeostasis.

[3] = serum parathyroid hormone in a human; format: in vivo; conditions: single oral doses 20-400 mg
Text: A range of single oral doses was used to assess safety, tolerance, and changes in primary hyperparathyroidism markers (e.g., plasma concentrations of parathyroid hormone and ionized serum calcium) and of serum calcitonin.

[4] = hypocalcemic response in nephrectomized rats; format: in vivo, rat; conditions: oral
Text: The decreases in serum levels of PTH together with. the resulting hypocalcemia are desirable therapeutic effects in cases of hyperparathyroidism.

[5] = target: T1, human parathyroid cells (calcium receptor) (Homo sapiens, UniProt P41180); format: cell-based
T1 sequence (P41180 20-1078): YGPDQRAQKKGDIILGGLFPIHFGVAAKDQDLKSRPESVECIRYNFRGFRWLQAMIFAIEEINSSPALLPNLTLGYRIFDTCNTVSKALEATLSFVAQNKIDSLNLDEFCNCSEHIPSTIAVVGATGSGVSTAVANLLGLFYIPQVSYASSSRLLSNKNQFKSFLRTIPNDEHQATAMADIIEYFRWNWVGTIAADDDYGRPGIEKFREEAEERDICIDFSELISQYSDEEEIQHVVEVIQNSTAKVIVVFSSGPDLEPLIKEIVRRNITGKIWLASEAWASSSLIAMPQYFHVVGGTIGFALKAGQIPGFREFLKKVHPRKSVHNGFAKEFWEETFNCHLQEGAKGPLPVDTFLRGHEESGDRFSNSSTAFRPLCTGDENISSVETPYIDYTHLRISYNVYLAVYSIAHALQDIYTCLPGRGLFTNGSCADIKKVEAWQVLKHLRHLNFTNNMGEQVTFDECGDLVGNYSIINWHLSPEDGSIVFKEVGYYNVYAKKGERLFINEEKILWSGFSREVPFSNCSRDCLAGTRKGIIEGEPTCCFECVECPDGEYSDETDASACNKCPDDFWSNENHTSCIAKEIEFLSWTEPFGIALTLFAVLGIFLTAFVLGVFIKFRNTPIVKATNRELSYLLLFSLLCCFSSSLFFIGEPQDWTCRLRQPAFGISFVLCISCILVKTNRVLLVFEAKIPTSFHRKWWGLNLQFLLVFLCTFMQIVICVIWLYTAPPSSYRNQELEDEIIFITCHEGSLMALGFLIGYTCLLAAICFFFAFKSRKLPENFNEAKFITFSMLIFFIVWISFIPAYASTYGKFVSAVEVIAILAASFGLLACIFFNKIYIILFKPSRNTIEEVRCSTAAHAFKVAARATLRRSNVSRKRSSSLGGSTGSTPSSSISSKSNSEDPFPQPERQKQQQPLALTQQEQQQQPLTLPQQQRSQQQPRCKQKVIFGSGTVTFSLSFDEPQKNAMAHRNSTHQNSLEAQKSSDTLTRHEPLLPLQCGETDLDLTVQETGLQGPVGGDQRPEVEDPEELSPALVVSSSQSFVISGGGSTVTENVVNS
Procedure: Human parathyroid glands, were obtained from patients undergoing surgical removal of parathyroid tissue for primary or uremic hyperparathyroidism (uremic HPT), and were treated similarly to bovine tissue.
The cells were then pelleted, resuspended in the same buffer, but lacking the ester, and incubated a further 15 minutes at 37° C. The cells were subsequently washed twice with PCB containing 0.5 mM CaCl2 and 0.5% BSA and maintained at room temperature (about 20° C.). Immediately before use, the cells were diluted five-fold with prewarmed 0.5 mM CaCl2 -PCB to obtain a final BSA concentration of 0.1%. The concentration of cells in the cuvette used for fluorescence recording was 1-2×10^6 /ml.
The fluorescence of indicator-loaded cells was measured at 37° C. in a spectrofluorimeter (Biomedical Instrumentation Group, University of Pennsylvania, Philadelphia, Pa.) equipped with a thermostated cuvette holder and magnetic stirrer using excitation and emission wavelengths of 340 and 510 nm, respectively. […] Leakage of dye is dependent on temperature and most occurs within the first 2 minutes after warming the cells in the cuvette. Dye leakage increases only very slowly thereafter. To correct the calibration for dye leakage, cells were placed in the cuvette and stirred at 37° C. for 2-3 minutes. The cell suspension was then removed, the cells pelleted, and the supernatant returned to a clean cuvette. […] This estimate was subtracted from the apparent Fmin.

[6] = system: PTH secretion from human parathyroid cells; test: PTH secretion from human parathyroid cells; format: cell-based; conditions: human (adenoma) parathyroid cells
Procedure: PTH secretion was measured by first suspending cells in PCB containing 0.5 mM CaCl2 and 0.1% BSA.
For human cells, a commercially available radioimmunoassay kit (INS-PTH; Nichols Institute, Los Angeles, Calif.) which recognizes intact and N-terminal human PTH was used because GW-1 antibody recognizes human PTH poorly.

[7] = target: T2, calcium receptor expressed from human parathyroid cell mRNA in Xenopus oocytes (Homo sapiens, UniProt P41180); test: response of Xenopus oocytes injected with human parathyroid mRNA; format: cell-based
T2 sequence (P41180 20-1078): T1 sequence (P41180 20-1078)
Procedure: Oocytes were injected with poly(A)^+ -enriched mRNA from human parathyroid tissue (hyperplastic glands from a case of secondary HPT).
Glass capillary tubes (1 mm diameter) were pulled to a fine tip and manually broken to achieve a tip diameter of about 15 μmeters. A droplet of mRNA (1 ng/nl in diethylpyrocarbonate (DEPC)-treated water) was placed onto […]® and drawn into the capillary tube by suction. The capillary tube was then connected to a picospritzer (WPI Instruments) and the volume of the air-pulsed droplets adjusted to deliver 50 ng of mRNA (typically 50 nl). A 35-mm culture dish with a patch of nylon stocking fixed to the bottom was used to secure the oocytes during injection of mRNA into the vegetal pole. The injected oocytes were placed into a 35-mm culture dish containing MBS, 100 μg/ml penicillin and 100 μg/ml streptomycin and incubated at 18° C. for 3 days.
Following incubation, an oocyte was placed into a 100-μl plastic chamber and superfused with MBS at a flow rate of 0.5 ml/min using a peristaltic pump. Test molecules or inorganic polycations were added by rapidly moving the tubing into different buffers. Recording and current-passing electrodes were constructed from thin-wall capillary tubing pulled to a resistance of 1-3 Mohms and filled with 3M KCl. […] Currents were recorded directly onto a strip chart recorder.
Using this screen allows one to test for an action directly on the calcium receptor. Oocytes expressing the calcium receptor also responded to several molecules active on intact parathyroid cells when screened as follows. […] This offers rather compelling evidence showing that these molecules act on the calcium receptor or on some other protein intimately associated with its function.

[8] = 10 mg/kg i.p., single dose, normal diet

| SMILES | decrease in serum ionized Ca2+ from the control level [1, 8] [%] | time to maximal fall in serum ionized Ca2+ [1, 8] [h] | serum ionized Ca2+, oral ([1]; single oral dose in corn oil, 3 hours) | serum ionized Ca2+ in parathyroidectomized rats [2] | plasma Ca2+ ([1]; p.o., rats) | plasma PTH in human [3] | hypocalcemic response after complete nephrectomy [4] | increase in [Ca2+]i (words) ([5]; 20 μM) | increase in [Ca2+]i (words) ([5]; human adenomatous tissue, 0.5 mM extracellular Ca2+, neomycin B 10 μM in FIG. 19, listed as Neomycin B) | increase in [Ca2+]i (words) ([5]; human adenomatous tissue, 0.5 mM extracellular Ca2+, neomycin B 10 μM in FIG. 19, listed as neomycin B) | inhibition of PTH secretion ([6]; listed as Neomycin B) | inhibition of PTH secretion ([6]; listed as neomycin B) | response of water-injected oocytes ([7]; 10 mM, water-injected control oocytes) | concentration effective in oocytes ([7]; human parathyroid mRNA) [µM] | response of oocytes expressing calcium receptor ([7]; human parathyroid mRNA, listed as Neomycin B) | response of oocytes expressing calcium receptor ([7]; human parathyroid mRNA, listed as neomycin B) |
| --- | --- | --- | --- | --- | --- | --- | --- | --- | --- | --- | --- | --- | --- | --- | --- | --- |
| COc1cccc([C@@H](C)NCCCc2ccccc2)c1 (single isomer, unassigned) [NPS R-467] | 22 | ≤ 1 | lowers serum ionized calcium; also recorded: dose-dependent reduction in serum levels of ionized | did not cause any change in serum ionized |  |  |  |  |  |  |  |  |  |  |  |  |
| COc1cccc([C@@H](C)NCCCc2ccccc2Cl)c1 [NPS R-568, (R)-(+)-N-[3-(2-chlorophenyl)propyl]-amethyl-α-3-methoxybenzylamine] |  |  |  | fails to elicit a hypocalcemic response | rapid, dose-dependent decrease | transient dose-dependent decrease in plasma PTH concentration | only marginally affected |  |  |  |  |  |  |  |  |  |
| NC[C@@H]1O[C@H](O[C@H]2[C@@H](O)[C@H](O[C@@H]3[C@@H](O)[C@H](N)C[C@H](N)[C@H]3O[C@H]3O[C@H](CN)[C@@H](O)[C@H](O)[C@H]3N)O[C@@H]2CO)[C@H](N)[C@@H](O)[C@@H]1O [Neomycin] |  |  |  |  |  |  |  | evoked a large increase | not only a transient, but additionally a steady-state increase | transient and sustained increases | inhibited PTH secretion | inhibit PTH secretion | failed to cause any change in the current | 100 | evoked oscillatory increases | evokes oscillating increases |
